Results published in patent US20110040086A1, “Novel Beta-Lactam Antibiotics, Methods for Their Production, and Their Use” (DRITTE PATENTPORTFOLIO BETEILIGUNGSGESELLSCHAFT MB, priority 2007, published 2011).

Legend:
[1] = system: Bacillus megaterium SBUG 1152; experiment: agar diffusion test (Test System 1, antimicrobial effect); type: cell-based
Experimental: (§1) Test System 1 (Antimicrobial Effect)
(§2) The test germs Escherichia coli SBUG 1135 and Bacillus megaterium SBUG 1152 are drawn overnight (17 hours at 37° C.) in 5 ml nutrient medium II. The incubation is performed in a shaking incubator (INFORS AG CH 4103, Bottmingen, Switzerland) at a shaking frequency of 180 rpm.
(§3) After 17 h incubation time, Escherichia coli has reached a cell density of ca. 2.4×10^10 cells/ml and Bacillus megaterium a cell density of ca. 2.1×10^8 cells/ml.
(§4) The seeding of bacteria in agar is selected so that, dense, but not confluent individual colonies develop after the incubation.
Bacillus megaterium: 0.1 ml of non-diluted overnight culture (ÜN) in 10 ml nutrient agar corresponds to a cell count of 10^6.
(§5) The inoculated nutrient agar is set in sterile Petri dishes and left standing for a few minutes for drying.
(§6) The test substances are deposited in stepped quantities (10 μg, 50 μg, 100 μg) onto active ingredient carriers (sensi-discs). For this purpose, the test substances are dissolved in methanol or A. dest. according to their solubility. Each inoculated plate is fitted with 3 test sheets.
(§7) After a 20-hour incubation time at 37° C., the zones of inhibition around the individual test sheets could be measured. The diameter of the zone of inhibition is specified in mm.

B. subtilis AWD 166 = experiment: agar diffusion test (antimicrobial effect); type: cell-based, Bacillus subtilis
Experimental: as §4, §5, §6, §7

[2] = system: Escherichia coli SBUG 1135; experiment: agar diffusion test (Test System 1, antimicrobial effect); type: cell-based; set-up: key: r = resistant (no detectable zone of inhibition)
Experimental: as §1, §2, §3, §4
Escherichia coli: the ÜN is diluted 1:100 with physiological saline solution, of which 0.1 ml is converted into 10 ml nutrient agar. That corresponds to a cell count of 10^6.
as §5, §6, §7

[3] = system: Enterococcus faecalis 769; experiment: agar diffusion test (Test System II, multi-resistant germs); type: cell-based; set-up: key: r = resistant (no detectable zone of inhibition)
Experimental: as §6
(§8) Test System II (Effect Against Multi-Resistant Germs)
(§9) For this purpose, bacteria is cultivated on Müller-Hinton-Agar II plates.
(§10) With 1-1.5 ml physiological saline solution, a bacteria suspension of McFarland 0.5 (corresponds to a bacteria density of 150×10^6 germs) is produced. Then, with a sterile glass rod, a small drop of bacteria suspension is placed on the Müller-Hinton-Agar plate and coated in three layers (vertical, horizontal, and transverse). Thereafter, the sensi-discs with the novel semi-synthetic test substances are placed on top. The fitted plates are incubated for 18-20 hours at 37° C. After incubation, the diameters of the zones of inhibition are read as a measure for the antimicrobial activity of the novel semi-synthetic test substances.

[4] = system: Staphylococcus aureus 315; experiment: as above; type: cell-based; set-up: key: r = resistant (no detectable zone of inhibition)
Experimental: as §6, §8, §9, §10

E. faecalis 945 = experiment: as above; type: cell-based, Enterococcus faecalis; set-up: key: r = resistant (no detectable zone of inhibition)
Experimental: as §6, §8, §9, §10

S. aureus 33490 = experiment: as above; type: cell-based, Staphylococcus aureus; set-up: key: r = resistant (no detectable zone of inhibition)
Experimental: as §6, §8, §9, §10

S. aureus 34289 = experiment: as above; type: cell-based, Staphylococcus aureus; set-up: key: r = resistant (no detectable zone of inhibition)
Experimental: as §6, §8, §9, §10

S. aureus 36881 = experiment: as above; type: cell-based, Staphylococcus aureus; set-up: key: r = resistant (no detectable zone of inhibition)
Experimental: as §6, §8, §9, §10

S. aureus 39105 = experiment: as above; type: cell-based, Staphylococcus aureus; set-up: key: r = resistant (no detectable zone of inhibition)
Experimental: as §6, §8, §9, §10

S. aureus 520 = experiment: as above; type: cell-based, Staphylococcus aureus; set-up: key: r = resistant (no detectable zone of inhibition)
Experimental: as §6, §8, §9, §10

S. aureus 526 = experiment: as above; type: cell-based, Staphylococcus aureus; set-up: key: r = resistant (no detectable zone of inhibition)
Experimental: as §6, §8, §9, §10

[5] = system: S. aureus North Germany strain; experiment: as above; type: cell-based, Staphylococcus aureus; set-up: key: r = resistant (no detectable zone of inhibition)
Experimental: as §6, §8, §9, §10

S. aureus 38418 = experiment: as above; type: cell-based, Staphylococcus aureus
Experimental: as §6, §8, §9, §10

S. aureus ATCC 6538 = experiment: as above; type: cell-based, Staphylococcus aureus
Experimental: as §6, §8, §9, §10

S. epidermidis 1068 = experiment: as above; type: cell-based, Staphylococcus epidermidis; set-up: key: r = resistant (no detectable zone of inhibition)
Experimental: as §6, §8, §9, §10

S. epidermidis 1071 = experiment: as above; type: cell-based, Staphylococcus epidermidis; set-up: key: r = resistant (no detectable zone of inhibition)
Experimental: as §6, §8, §9, §10

S. epidermidis 563 = experiment: as above; type: cell-based, Staphylococcus epidermidis; set-up: key: r = resistant (no detectable zone of inhibition)
Experimental: as §6, §8, §9, §10

S. epidermidis 847 = experiment: as above; type: cell-based, Staphylococcus epidermidis; set-up: key: r = resistant (no detectable zone of inhibition)
Experimental: as §6, §8, §9, §10

S. epidermidis 125 = experiment: as above; type: cell-based, Staphylococcus epidermidis
Experimental: as §6, §8, §9, §10

[6] = system: Staphylococcus aureus ATCC 6538; experiment: mouse infected with Staphylococcus aureus infection model (survival); type: in vivo, BALB/c mice; conditions: 2 × 1.0 mg (50 mg/kg) i.p.
Experimental: Method for Effectiveness In Vivo with the Mouse Infected with Staphylococcus aureus Model
On Day 0, at least 3 BALB/c mice per test substance (Table 8) or controls are pretreated with cyclophosphamide (250 mg/kg) in 250 μl PBS inta peritoneal (i.p.).
On Day 2, the animals again received 100 mg/kg i.p.
On Day 2, a colony of the test germ is transferred from a growing agar plate (Müller-Hinton-Agar, Beckton Dickinson) into a flask with 10 ml CASO broth (CASO-B., Soyabean peptone-Casein peptone broth, SIFIN, 30 g/l) and is cultivated overnight at 37° C. and a shaking frequency of 250 rpm.
On Day 3, the pre-culture (Vk) is diluted 1:50 with CASO-B and further cultivated ca. 2 hours until an extinction in the medium of 0.6 at a wavelength of 550 nm is reached. Then, it is grown 1× with PBS at room temperature and set again to an extinction of 0.6.
At least 3 animals for a test substance or controls are infected with 10 μl/g body weight grown germs of a bacteria suspension with the extinction 0.6 (ca. 10^10-10^12 CFU, Colony forming units) i.p.
After 30 minutes, antibiotic solution is injected into the mice in a volume of 200 μl PBS with 3% DMSO i.p. 6 hours later, the second antibiotic injection is performed at the same concentration. […]

COC(=O)C1=C(NC(C(=O)NC2C(=O)N3C(C(=O)O)=C(C)CSC23)c2ccccc2)C(=O)C=CC1=O (stereo not shown) [1g, 7-[2-(2-methoxycarbonyl-3,6-dioxocyclohexa-1,4-dienylamino)-2-phenyl-acetylamino]-desacetoxycephalosporanic acid]
16 mm: Diameter of zone of inhibition ([2]; Quantity n 0.14) | Diameter of zone of inhibition (S. aureus 38418; Quantity n [mol] 0.029)
28 mm: Diameter of zone of inhibition (S. aureus ATCC 6538; Quantity n 0.14) | Diameter of zone of inhibition (S. epidermidis 125; Quantity n 0.29)
30 mm: Diameter of zone of inhibition ([1]; Quantity n 0.14) | Diameter of zone of inhibition (B. subtilis AWD 166; Quantity n 0.14) | Diameter of zone of inhibition (S. aureus 38418; Quantity n [mol] 0.29)
32 mm: Diameter of zone of inhibition (B. subtilis AWD 166; Quantity n 0.29) | Diameter of zone of inhibition (S. aureus ATCC 6538; Quantity n 0.29)
26 mm: Diameter of zone of inhibition (S. aureus 38418; Quantity n [mol] 0.14)
14 mm: Diameter of zone of inhibition ([5]; Quantity n 0.29) | Diameter of zone of inhibition (S. epidermidis 1068; Quantity n 0.14) | Diameter of zone of inhibition (S. epidermidis 563; Quantity n 0.29) | Diameter of zone of inhibition (S. epidermidis 847; Quantity n [mol] 0.14) | Diameter of zone of inhibition (S. epidermidis 125; Quantity n 0.029)
34 mm: Diameter of zone of inhibition ([1]; Quantity n 0.29)
10 mm: Diameter of zone of inhibition (S. aureus 39105; Quantity n 0.14) | Diameter of zone of inhibition ([5]; Quantity n 0.14)
8 mm: Diameter of zone of inhibition (S. epidermidis 563; Quantity n 0.14)
r: Diameter of zone of inhibition ([2]; Quantity n 0.029) | Diameter of zone of inhibition ([3]; Quantity n 0.029) | Diameter of zone of inhibition ([3]; Quantity n 0.14) | Diameter of zone of inhibition ([3]; Quantity n 0.29) | Diameter of zone of inhibition ([4]; Quantity n 0.029) | Diameter of zone of inhibition ([4]; Quantity n 0.14) | Diameter of zone of inhibition (E. faecalis 945; Quantity n 0.029) | Diameter of zone of inhibition (E. faecalis 945; Quantity n 0.14) | Diameter of zone of inhibition (E. faecalis 945; Quantity n 0.29) | Diameter of zone of inhibition (S. aureus 33490; Quantity n [μmol] 0.029) | Diameter of zone of inhibition (S. aureus 34289; Quantity n [mol] 0.029) | Diameter of zone of inhibition (S. aureus 34289; Quantity n [mol] 0.14) | Diameter of zone of inhibition (S. aureus 34289; Quantity n [mol] 0.29) | Diameter of zone of inhibition (S. aureus 36881; Quantity n 0.029) | Diameter of zone of inhibition (S. aureus 36881; Quantity n 0.14) | Diameter of zone of inhibition (S. aureus 39105; Quantity n 0.029) | Diameter of zone of inhibition (S. aureus 520; Quantity n [mol] 0.029) | Diameter of zone of inhibition (S. aureus 520; Quantity n [mol] 0.14) | Diameter of zone of inhibition (S. aureus 520; Quantity n [mol] 0.29) | Diameter of zone of inhibition (S. aureus 526; Quantity n 0.029) | Diameter of zone of inhibition (S. aureus 526; Quantity n 0.14) | Diameter of zone of inhibition (S. aureus 526; Quantity n 0.29) | Diameter of zone of inhibition ([5]; Quantity n 0.029) | Diameter of zone of inhibition (S. epidermidis 1068; Quantity n 0.029) | Diameter of zone of inhibition (S. epidermidis 1071; Quantity n 0.029) | Diameter of zone of inhibition (S. epidermidis 563; Quantity n 0.029) | Diameter of zone of inhibition (S. epidermidis 847; Quantity n [mol] 0.029)
20 mm: Diameter of zone of inhibition ([1]; Quantity n 0.029) | Diameter of zone of inhibition (S. aureus 33490; Quantity n [μmol] 0.14) | Diameter of zone of inhibition (S. aureus ATCC 6538; Quantity n 0.029)
12 mm: Diameter of zone of inhibition ([4]; Quantity n 0.29) | Diameter of zone of inhibition (S. aureus 36881; Quantity n 0.29)
22 mm: Diameter of zone of inhibition ([2]; Quantity n 0.29) | Diameter of zone of inhibition (S. epidermidis 1071; Quantity n 0.29)
24 mm: Diameter of zone of inhibition (B. subtilis AWD 166; Quantity n 0.029) | Diameter of zone of inhibition (S. aureus 33490; Quantity n [μmol] 0.29) | Diameter of zone of inhibition (S. epidermidis 125; Quantity n 0.14)
18 mm: Diameter of zone of inhibition (S. aureus 39105; Quantity n 0.29) | Diameter of zone of inhibition (S. epidermidis 1068; Quantity n 0.29) | Diameter of zone of inhibition (S. epidermidis 1071; Quantity n 0.14) | Diameter of zone of inhibition (S. epidermidis 847; Quantity n [mol] 0.29)

3-chlorine-7-[2-(2-carbamoyl-3,6-dioxocyclohexa-1,4-dienylamino)-2-phenyl-acetylamino]-8-oxo-5-aza-bicyclo[4.2.0]oct-3-ene-4-carboxylic acid [1n]
12 mm: Diameter of zone of inhibition ([4]; Quantity n 0.19)
r: Diameter of zone of inhibition ([3]; Quantity n 0.019) | Diameter of zone of inhibition ([3]; Quantity n 0.096) | Diameter of zone of inhibition ([3]; Quantity n 0.19) | Diameter of zone of inhibition ([4]; Quantity n 0.019) | Diameter of zone of inhibition ([4]; Quantity n 0.096) | Diameter of zone of inhibition (S. aureus 36881; Quantity n 0.019) | Diameter of zone of inhibition (S. aureus 36881; Quantity n 0.096) | Diameter of zone of inhibition (S. aureus 520; Quantity n [mol] 0.019) | Diameter of zone of inhibition (S. aureus 520; Quantity n [mol] 0.096) | Diameter of zone of inhibition ([5]; Quantity n 0.019) | Diameter of zone of inhibition ([5]; Quantity n 0.096) | Diameter of zone of inhibition (S. epidermidis 847; Quantity n [mol] 0.019)
14 mm: Diameter of zone of inhibition ([5]; Quantity n 0.19) | Diameter of zone of inhibition (S. aureus 38418; Quantity n [mol] 0.019) | Diameter of zone of inhibition (S. epidermidis 125; Quantity n 0.019)
28 mm: Diameter of zone of inhibition (S. aureus ATCC 6538; Quantity n 0.096)
32 mm: Diameter of zone of inhibition (S. aureus ATCC 6538; Quantity n 0.19)
20 mm: Diameter of zone of inhibition (S. epidermidis 847; Quantity n [mol] 0.19)
26 mm: Diameter of zone of inhibition (S. aureus 38418; Quantity n [mol] 0.096) | Diameter of zone of inhibition (S. epidermidis 125; Quantity n 0.19)
8 mm: Diameter of zone of inhibition (S. aureus 36881; Quantity n 0.19) | Diameter of zone of inhibition (S. aureus 520; Quantity n [mol] 0.19)
3/3: Survival/tested mice n/n [6]
16 mm: Diameter of zone of inhibition (S. epidermidis 847; Quantity n [mol] 0.096)
22 mm: Diameter of zone of inhibition (S. aureus ATCC 6538; Quantity n 0.019) | Diameter of zone of inhibition (S. epidermidis 125; Quantity n 0.096)
30 mm: Diameter of zone of inhibition (S. aureus 38418; Quantity n [mol] 0.19)
